Here are results for two substances from paper PMC4420518 (Protein Science : A Publication of the Protein Society, 2015).

The target of test [1] is TpsB4 POTRA1 domain (TpsB4-P1; residues 42-121) (P. aeruginosa). The test is described as follows: NMR titration.
Test [2] relates to TpsB4-P1 (TpsB4 POTRA1 domain). The test is described as follows: 1H-15N HSQC NMR titration of 15N-labelled TpsB4-P1 with peptides. Type of test: binding, P. aeruginosa.

Turning to TpsA4^79-95 peptide, the Kd in test [1] is 1.49 mM.
As to QVFLVNPNGVLFGRGAQ [CupB5^80–96], the “binding to 15N-labelled TpsB4-P1 (CSPs in 1H-15N HSQC)” value in test [2] (200 μM TpsB4-P1, synthetic peptides, free N- and C-termini) is “interacts with TpsB4‐P1 with a virtually identical pattern of CSPs”. The “exchange regime of interaction with TpsB4 POTRA1” value in test [2] (NMR timescale) was “fast exchange”.
